Data: ChEMBL document CHEMBL4422618, “Translational impact of novel widely pharmacological characterized mofezolac-derived COX-1 inhibitors combined with bortezomib on human multiple myeloma cell lines viability” (Eur J Med Chem, 2019)
Active and inactive are the calls of the source. The calls are words filed in the database; no cut-off is given here.

Tests used:
Platelet = assay: Antiplatelet activity in human platelet rich plasma assessed as inhibition of arachidonic acid-induced platelet aggregation preincubated for 2 mins followed by arachidonic acid addition by turbidimetric method; assay type: functional, cell-based
Plasma [1] = assay: Anticoagulant activity in human platelet poor plasma assessed as activated partial thromboplastin time at 100 uM incubated for 15 mins at room temperature and subsequent incubation for 2 mins at 37 degreeC followed by cephalin addition and measured after 2 mins for every secs in presence of CaCl2; assay type: functional
Plasma [2] = assay: Anticoagulant activity in human platelet poor plasma assessed as prothrombin time at 100 uM incubated for 15 mins at room temperature and subsequent incubation for 2 mins at 37 degreeC followed by PBS addition and measured after 3 mins for every secs in presence of calcium thromboplastin; assay type: functional
[3] = Hemolytic activity in erythrocytes (unknown origin) at 100 uM after 3 hrs by spectrophotometric analysis; assay type: ADME, cell-based, Erythrocyte; conditions: read-out: Activity
[4] = Mutagenicity in Salmonella typhimurium TA97 at 500 uM by Ames test; assay type: toxicity; conditions: salmonella enterica subsp. enterica serovar typhimurium
[5] = Mutagenicity in Salmonella typhimurium TA98 at 500 uM by Ames test; assay type: toxicity; conditions: salmonella enterica subsp. enterica serovar typhimurium
[6] = Mutagenicity in Salmonella typhimurium TA100 at 500 uM by Ames test; assay type: toxicity; conditions: salmonella enterica subsp. enterica serovar typhimurium
[7] = Mutagenicity in Salmonella typhimurium TA102 at 500 uM by Ames test; assay type: toxicity; conditions: salmonella enterica subsp. enterica serovar typhimurium
[8] = Genotoxicity in Escherichia coli PQ35 at 500 uM after overnight incubation by SOS chromotest; assay type: toxicity
[9] = Genotoxicity in Escherichia coli PQ37 at 500 uM after overnight incubation by SOS chromotest; assay type: toxicity
RPMI-8226 [10] = assay: Cytotoxicity against human RPMI8226 cells assessed as reduction in cell viability at […] after 48 hrs by CCK8 assay relative to control; assay type: functional
NCI-H929 [11] = assay: Potentiation of bortezomib-induced cytotoxicity against human NCI-H929 cells assessed as reduction in cell viability at […] after 48 hrs in presence of bortezomib by CCK8 assay; assay type: functional, cell-based
NCI-H929 [12] = assay: Potentiation of bortezomib-induced cytotoxicity against human NCI-H929 cells assessed as reduction in cell viability at 42 nM after 48 hrs in presence of bortezomib by CCK8 assay; assay type: functional, cell-based
RPMI-8226 [13] = assay: Potentiation of bortezomib-induced cytotoxicity against human RPMI8226 cells assessed as reduction in cell viability at 1.7 uM after 48 hrs in presence of bortezomib by CCK8 assay; assay type: functional
NCI-H929 [14] = assay: Induction of apoptosis in human NCI-H929 cells assessed as early apoptotic cells at 1.7 uM after 48 hrs by Annexin-V/propidium iodide staining based flow cytometric method (reference value: 17.1%); assay type: functional
NCI-H929 [15] = assay: Induction of apoptosis in human NCI-H929 cells assessed as late apoptotic cells at 1.7 uM after 48 hrs by Annexin-V/propidium iodide staining based flow cytometric method (reference value: 0.23%); assay type: functional
NCI-H929 [16] = assay: Induction of apoptosis in human NCI-H929 cells assessed as necrotic cells at 1.7 uM after 48 hrs by Annexin-V/propidium iodide staining based flow cytometric method (reference value: 0.0034%); assay type: functional
NCI-H929 [17] = assay: Induction of apoptosis in human NCI-H929 cells assessed as viable cells at 1.7 uM after 48 hrs by Annexin-V/propidium iodide staining based flow cytometric method (reference value: 82.6%); assay type: functional; conditions: NCI-H929, 48 h, read-out: Activity
NCI-H929 [18] = assay: Induction of apoptosis in human NCI-H929 cells assessed as early apoptotic cells at 1.7 uM after 48 hrs in presence of bortezomib by Annexin-V/propidium iodide staining based flow cytometric method (reference value: 17.1%); assay type: functional
NCI-H929 [19] = assay: Induction of apoptosis in human NCI-H929 cells assessed as late apoptotic cells at 1.7 uM after 48 hrs in presence of bortezomib by Annexin-V/propidium iodide staining based flow cytometric method (reference value: 0.23%); assay type: functional
NCI-H929 [20] = assay: Induction of apoptosis in human NCI-H929 cells assessed as necrotic cells at 1.7 uM after 48 hrs in presence of bortezomib by Annexin-V/propidium iodide staining based flow cytometric method (reference value: 0.0034%); assay type: functional
NCI-H929 [21] = assay: Induction of apoptosis in human NCI-H929 cells assessed as viable cells at 1.7 uM after 48 hrs in presence of bortezomib by Annexin-V/propidium iodide staining based flow cytometric method (reference value: 82.6%); assay type: functional; conditions: NCI-H929, 48 h, read-out: Activity
RPMI-8226 [22] = assay: Induction of apoptosis in human RPMI8226 cells assessed as early apoptotic cells at 1.7 uM after 48 hrs in presence of bortezomib by Annexin-V/propidium iodide staining based flow cytometric method (reference value: 1.05%); assay type: functional
RPMI-8226 [23] = assay: Induction of apoptosis in human RPMI8226 cells assessed as late apoptotic cells at 1.7 uM after 48 hrs in presence of bortezomib by Annexin-V/propidium iodide staining based flow cytometric method (reference value: 0.21%); assay type: functional
RPMI-8226 [24] = assay: Induction of apoptosis in human RPMI8226 cells assessed as necrotic cells at 1.7 uM after 48 hrs in presence of bortezomib by Annexin-V/propidium iodide staining based flow cytometric method (reference value: 0.090%); assay type: functional
RPMI-8226 [25] = assay: Induction of apoptosis in human RPMI8226 cells assessed as viable cells at 1.7 uM after 48 hrs in presence of bortezomib by Annexin-V/propidium iodide staining based flow cytometric method (reference value: 98.7%); assay type: functional; conditions: RPMI-8226, 48 h, read-out: Activity
RPMI-8226 [26] = assay: Cell cycle arrest in human RPMI8226 cells assessed as accumulation at G0/G1 phase at 1.7 uM in presence of bortezomib after 48 hrs by propidium iodide/RNase staining based flow cytometric method relative to bortezomib; assay type: functional
RPMI-8226 [27] = assay: Cell cycle arrest in human RPMI8226 cells assessed as accumulation at S phase at 1.7 uM in presence of bortezomib after 48 hrs by propidium iodide/RNase staining based flow cytometric method relative to bortezomib; assay type: functional
RPMI-8226 [28] = assay: Cell cycle arrest in human RPMI8226 cells assessed as reduction in accumulation at G2/M phase at 1.7 uM in presence of bortezomib after 48 hrs by propidium iodide/RNase staining based flow cytometric method relative to bortezomib; assay type: functional
RPMI-8226 [29] = assay: Cell cycle arrest in human RPMI8226 cells assessed as accumulation at G0/G1 phase at 1.7 uM after 48 hrs by propidium iodide/RNase staining based flow cytometric method; assay type: functional
RPMI-8226 [30] = assay: Cell cycle arrest in human RPMI8226 cells assessed as accumulation at S phase at 1.7 uM after 48 hrs by propidium iodide/RNase staining based flow cytometric method; assay type: functional

CC(=O)Oc1ccccc1C(=O)O [ASPIRIN]
IC50 (Platelet): 1.11 µM | APTT (Plasma [1]): 50.3 s | PT (Plasma [2]): 14.6 s | hemolysis at 3 h, 100 µM [3]: 0% | Activity [4]: Non-Toxic | Activity [5]: Non-Toxic | Activity [6]: Non-Toxic | Activity [7]: Non-Toxic | Activity [8]: Non-Toxic | Activity [9]: Non-Toxic | Activity (RPMI-8226 [10]): 7% | Activity (NCI-H929 [11]): inactive | Activity (NCI-H929 [12]): inactive | Activity (RPMI-8226 [13]): 66% | Activity (NCI-H929 [14]): 16% | Activity (NCI-H929 [15]): 0.072% | Activity (NCI-H929 [16]): 0.016% | viability at 1.7 µM (NCI-H929 [17]): 83.9% | Activity (NCI-H929 [18]): 54.6% | Activity (NCI-H929 [19]): 0.12% | Activity (NCI-H929 [20]): 0.026% | viability at 1.7 µM (NCI-H929 [21]): 45.2% | Activity (RPMI-8226 [22]): 7.95% | Activity (RPMI-8226 [23]): 0.48% | Activity (RPMI-8226 [24]): 0.014% | viability at 1.7 µM (RPMI-8226 [25]): 91.6% | Activity (RPMI-8226 [26]): Active | Activity (RPMI-8226 [27]): Active | Activity (RPMI-8226 [28]): Active | Activity (RPMI-8226 [29]): inactive | Activity (RPMI-8226 [30]): inactive
